Drawing on patent US20230391779A1, “BICYCLIC COMPOUNDS, COMPOSITIONS AND USE THEREOF” (Betta Pharmaceuticals Co., Ltd., priority 2020, published 2023), this text covers EC50 for 28 compounds.

For orientation: EC50 means the concentration that produces a half-maximal response.

The structures appear in SMILES notation.

This assay relates to TEAD-YAP/TAZ interaction. The assay can be described thus: CTGF ELISA assay. The conditions noted are these: CTGF in culture supernatant of NCI-H2052 cells, 24 hours with compound. Format: cell-based, human. The method, then:
The detection of CTGF expression level can assessed the binding activity of TEAD-YAP/TAZ transcription factor, and the CTGF expression level was quantified by SimpleStep ELISA® kit (Abcam, ab261851).
NCI-H2052 cells (Purchased from ATCC) were cultured in RPMI 1640 medium, adding 10% FBS and 1% Penicillin-Streptomycin Solution and 1 mM Sodium pyruvate. The day before compounds treatment, the cultured cells were washed with PBS and digested with trypsin, then centrifuged and collected. Discarded the supernatant, the cells were resuspended in fresh complete medium. After cells counted, cells were seeded at 6500 cells/well in 96-well plates. And then cells were cultured overnight in incubator (37° C., 5% CO2).
After the cells were cultured overnight, discarded the culture supernatant, then washed with PBS solution, cells were incubated with 200 μl medium containing compounds in each well. The starting concentration was 10 μM and serial dilution in DMSO and medium were performed to achieve a final DMSO concentration of 0.5% (Final compounds concentration were 10000, 2500, 625, 156, 39.1, 9.77, 2.44, 0.61 nM, 0 nM (0.5% DMSO), The cells were then cultured in incubator (37° C., 5% CO2). Cultured for 24 hours, the cells were centrifuged at 1500 RPM at 4° C. for 5 minutes, and then 50 μl of culture supernatant were tested for CTGF ELISA assay.
The Human CTGF SimpleStep ELISA® Kit (Abcam, ab261851) employs an affinity tag labeled capture antibody and a reporter conjugated detector antibody which immunocapture the sample analyte in solution. This entire complex (capture antibody/analyte/detector antibody) is in turn immobilized via immunoaffinity of an anti-tag antibody coating the well. To perform the assay, samples or standards are added to the wells, followed by the antibody mix (capture antibody/detector antibody). After incubation, the wells are washed to remove unbound material. TMB Development Solution is added and during incubation is catalyzed by HRP, generating blue coloration. This reaction is then stopped by addition of Stop Solution completing any color change from blue to yellow. Signal is generated proportionally to the amount of bound analyte and the intensity is measured at 450 nm. Firstly, prepare all reagents, samples, and standards as instructed. Add 50 μl standard or sample to appropriate wells. Then add 50 μl of the Antibody Cocktail to each well. Seal the plate and incubate for 1 hour at room temperature on a plate shaker. Wash each well with Wash Buffer three times. Add 100 μl of TMB Development Solution to each well and incubate for 10 minutes in the dark on a plate shaker. Add 100 μl of Stop Solution to each well. Shake plate on a plate shaker for 1 minute to mix. Record the OD at 450 nm. Determine the concentration of the target protein in the sample by the standard curve.
EC50 value was determined by fitting the concentration response curves using GraphPad Prism software. The compounds of the present invention were tested for their capacity to inhibit TEAD-YAP/TAZ interaction according to the fitted curves of CTGF concentration response to compounds.
`C=C(F)C(=O)NCC(C=O)n1nc(-c2ccc(C(F)(F)F)cc2)c2cccnc21` (stereo not shown) [Com. EX.1, 2-fluoro-N-(3-oxo-2-(3-(4-(trifluoromethyl)phenyl)-1H-pyrazolo[3,4-b]pyridin-1-yl)propyl)acrylamide, reference compound]: the concentration giving a half-maximal response (EC50) is above 10000 nM.

As to `C=C(F)C(=O)NCC(C(=O)O)n1nc(-c2ccc(C(F)(F)F)cc2)c2cccnc21` (stereo not shown) [Com. EX.2, 3-(2-fluoroacrylamido)-2-(3-(4-(trifluoromethyl)phenyl)-1H-pyrazolo[3,4-b]pyridin-1-yl)propanoic acid, reference compound], the 50% effective concentration (EC50) is above 10000 nM.

In the case of `CC(=O)N1CCC(n2nc(-c3ccc(C(F)(F)F)cc3)c3ccccc32)C1` (stereo not shown) [Com. EX.3, 1-(3-(3-(4-(trifluoromethyl)phenyl)-1H-indazol-1-yl)pyrrolidin-1-yl)ethan-1-one, reference compound], the EC50 was above 10000 nM.

Consider `C=C(F)C(=O)N1CC(n2c(=O)n(-c3ccc(Oc4ccccc4)cc3)c3cnccc32)C1` [Com. EX.4, 1-(1-(2-fluoroacryloyl)azetidin-3-yl)-3-(4-phenoxyphenyl)-1,3-dihydro-2H-imidazo[4,5-c]pyridin-2-one, reference compound], for which the half-maximal effective concentration (EC50) was above 10000 nM.

As for `CCOC(=O)N1CC(n2nc(-c3ccc(OC(F)(F)F)cc3)c3cccnc32)C1` [Com. EX.5, ethyl 3-(3-(4-(trifluoromethoxy)phenyl)-1H-pyrazolo[3,4-b]pyridin-1-yl)azetidine-1-carboxylate, reference compound], the EC50 is above 10000 nM.

`C=CC(=O)N1CCC(n2nc(-c3ccc(C(F)(F)F)cc3)c3nc[nH]c(=O)c32)C1` (stereo not shown) [Compound 2, 1-(1-acryloylpyrrolidin-3-yl)-3-(4-(trifluoromethyl)phenyl)-1,6-dihydro-7H-pyrazolo[4,3-d]pyrimidin-7-one]: the EC50 was 25 nM.

Take `C=CC(=O)N1CCC(c2nn(-c3ccc(C(F)(F)F)cc3)c3ccccc23)C1` (stereo not shown) [Compound 4, 1-(3-(1-(4-(trifluoromethyl)phenyl)-1H-indazol-3-yl)pyrrolidin-1-yl)prop-2-en-1-one]: the half-maximal effective concentration (EC50) was determined as 15.5 nM.

Take `C=CC(=O)N1CCC(n2nc(-c3ccc(C(F)(F)F)cc3)c3ncn(C)c(=O)c32)C1` (stereo not shown) [Compound 7, 1-(1-acryloylpyrrolidin-3-yl)-6-methyl-3-(4-(trifluoromethyl)phenyl)-1,6-dihydro-7H-pyrazolo[4,3-d]pyrimidin-7-one]: the EC50 worked out at 5 nM.

Take `C=C(F)C(=O)N1CC(n2nc(-c3ccc(C(F)(F)F)cc3)c3cccnc32)C1C` (stereo not shown) [Compound 9, 2 fluoro-1-(2-methyl-3-(3-(4-(trifluoromethyl)phenyl)-1H-pyrazolo[3,4-b]pyridin-1 yl)azetidin-1 yl)prop-2-en-1-one]: the EC50 is 1.4 nM.

Regarding `C=C(F)C(=O)N1CC(n2nc(Nc3ccc(C(F)(F)F)cc3)c3ccc(C)nc32)C1` [Compound 11, 2 fluoro-1-(3-(6-methyl-3-((4-(trifluoromethyl)phenyl)amino)-1H-pyrazolo[3,4-b]pyridin-1 yl)azetidin-1 yl)prop-2-en-1-one], the concentration for a half-maximal effect (EC50) was 0.7 nM.

As to `C=CC(=O)NC1CN(c2nc(-c3ccc(C(F)(F)F)cc3)n3ccccc23)C1` [Compound 13, N-(1-(3-(4-(trifluoromethyl)phenyl)imidazo[1,5-a]pyridin-1 yl)azetidin-3 yl)acrylamide], the concentration for a half-maximal effect (EC50) stood at 20 nM.

Turning to `C=CC(=O)N1CC(n2nc(-c3ccc(C(F)(F)F)cc3)c3cccc(NC(C)=O)c32)C1` [Compound 15, N-(1-(1-acryloylazetidin-3 yl)-3-(4-(trifluoromethyl)phenyl)-1H-indazol-7-yl)acetamide], the EC50 was 35 nM.

As to `C=CC(=O)N1CCC(n2nc(-c3ccc(C(F)(F)F)cc3)c3nccnc32)C1` (stereo not shown) [Compound 18, 1-(3-(3-(4-(trifluoromethyl)phen-yl)-1H-pyrazolo[3,4-b]pyrazin-1-yl)pyrrolidin-1-yl)prop-2-en-1-one], the concentration giving a half-maximal response (EC50) was 10 nM.

Take `C=CC(=O)N1CCC(n2nc(-c3ccc(C(F)(F)F)cc3)c3ccncc32)C1` (stereo not shown) [Compound 22, 1-(3-(3-(4-(trifluoromethyl)phen-yl)-1H-pyrazolo[3,4-c]pyridin-1-yl)pyrrolidin-1-yl)prop-2-en-1-one]: the EC50 came out at 20 nM.

Take `C=CC(=O)N1CCC(n2nc(-c3ccc(C(F)(F)F)cc3)c3cnccc32)C1` (stereo not shown) [Compound 23, 1-(3-(3-(4-(trifluoromethyl)phen-yl)-1H-pyrazolo[4,3-c]pyridin-1-yl)pyrrolidin-1-yl)prop-2-en-1-one]: the EC50 is 16 nM.

Take `C=CC(=O)N1CCC(n2nc(-c3ccc(C(F)(F)F)cc3F)c3cccnc32)C1` (stereo not shown) [Compound 29, 1-(3-(3-(2-fluoro-4-(trifluoro-methyl)phenyl)-1H-pyrazolo[3,4-b]pyridin-1-yl)pyrrolidin-1-yl)-prop-2-en-1-one]: the EC50 is 12 nM.

On to `C=CC(=O)N1CCCC(n2nc(-c3ccc(C(F)(F)F)cc3)c3cccnc32)C1` (stereo not shown) [Compound 33, 1-(3-(3-(4-(trifluoromethyl)phen-yl)-1H-pyrazolo[3,4-b]pyridin-1-yl)piperidin-1-yl)prop-2-en-1-one], for which the EC50 came to 32 nM.

In the case of `C=CC(=O)N1CCC(Cn2nc(-c3ccc(C(F)(F)F)cc3)c3ccccc32)C1` (stereo not shown) [Compound 34, 1-(3-((3-(4-(trifluoromethyl)phen-yl)-1H-indazol-1-yl)methyl)-pyrrolidin-1-yl)prop-2-en-1-one], the EC50 stood at 137 nM.

As for `C=CC(=O)NC1CCC(n2nc(-c3ccc(C(F)(F)F)cc3)c3ccccc32)C1` (stereo not shown) [Compound 37, N-(3-(3-(4-(trifluoromethyl)phen-yl)-1H-indazol-1-yl)cyclopentyl)-acrylamide], the concentration giving a half-maximal response (EC50) amounted to 42 nM.

For `C=CC(=O)N1CCC(n2nc(-c3ccc(C(F)(F)F)cc3)c3cccc(C)c32)C1` (stereo not shown) [Compound 39, 1-(3-(7-methyl-3-(4-(trifluoro-methyl)phenyl)-1H-indazol-1-yl)pyrrolidin-1-yl)prop-2-en-1-one], the EC50 was 14 nM.

On to `C=CC(=O)N1CCC(n2nc(-c3ccc(C(F)(F)F)cc3)c3cccc(C(N)=O)c32)C1` (stereo not shown) [Compound 42, 1-(1-acryloylpyrrolidin-3-yl)-3-(4-(trifluoromethyl)phenyl)-1H-indazole-7-carboxamide], for which the EC50 came to 14 nM.

Take `C=CC(=O)N1CCN(C(=O)c2nn(-c3ccc(C(F)(F)F)cc3)c3ccccc23)CC1` [Compound 43, 1-(4-(1-(4-(trifluoromethyl)phen-yl)-1H-indazole-3-carbonyl)-piperazin-1-yl)prop-2-en-1-one]: the EC50 was 11 nM.

Consider `C=CC(=O)N1CCC(n2nc(-c3ccc(C(F)(F)F)cc3)c3cccc(OC)c32)C1` (stereo not shown) [Compound 44, 1-(3-(7-methoxy-3-(4-(trifluoro-methyl)phenyl)-1H-indazol-1-yl)-pyrrolidin-1-yl)prop-2-en-1-one], for which the half-maximal effective concentration (EC50) is 20 nM.

For the compound `C=CC(=O)N1CCC(n2nc(-c3ccc(C(F)(F)F)cc3)c3cccc(Cl)c32)C1` (stereo not shown) [Compound 45, 1-(3-(7-chloro-3-(4-(trifluoro-methyl)phenyl)-1H-indazol-1-yl)-pyrrolidin-1-yl)prop-2-en-1-one], the EC50 came to 15 nM.

As to `C=CC(=O)N1CCC(n2nc(-c3ccc(C(F)(F)F)cc3)c3cccc(C(F)(F)F)c32)C1` (stereo not shown) [Compound 46, 1-(3-(7-(trifluoromethyl)-3-(4-(trifluoromethyl)phenyl)-1H-indazol-1-yl)pyrrolidin-1-yl)-prop-2-en-1-one], the EC50 worked out at 12 nM.

For the compound `C=CC(=O)N1CCC(n2nc(-c3ccc(C(F)(F)F)cc3)c3cccc(C#N)c32)C1` (stereo not shown) [Compound 48, 1-(1-acryloylpyrrolidin-3-yl)-3-(4-(trifluoromethyl)phenyl)-1H-indazole-7-carbonitrile], the concentration for a half-maximal effect (EC50) is 15 nM.

For the compound `C=CC(=O)N1CCC(n2nc(-c3ccc(C(F)(F)F)cc3)c3ccc(F)cc32)C1` (stereo not shown) [Compound 50, 1-(3-(6-fluoro-3-(4-(trifluoro-methyl)phenyl)-1H-indazol-1-yl)-pyrrolidin-1-yl)prop-2-en-1-one], the EC50 stood at 23 nM.

With `C=CC(=O)N1CCC(n2nc(-c3ccc(C(F)(F)F)cc3)c3cc(F)c(F)cc32)C1` (stereo not shown) [Compound 51, 1-(3-(5,6-difluoro-3-(4-(trifluoro-methyl)phenyl)-1H-indazol-1-yl)-pyrrolidin-1-yl)prop-2-en-1-one], the EC50 was 44 nM.
